Experimental data taken from ChEMBL document CHEMBL4038282 (Eur J Med Chem, 2017).
In brackets after ≈: the same amount, converted by molar mass. Activity calls are given as the source filed them. The rule behind the calls is not given here.

Assays:
[1] = test system: MDA-MB-231; test: Antiproliferative activity against human MDA-MB-231 cells up to 72 hrs by MTT assay; assay type: functional, cell-based; conditions: MDA-MB-231, 72 h
[2] = test system: MDA-MB-231; test: Potency index, ratio of curcumin IC50 to compound IC50 for human MDA-MB-231 cells; assay type: functional
[3] = test system: PC-3; test: Antiproliferative activity against human PC3 cells up to 72 hrs by MTT assay; assay type: functional, cell-based; conditions: PC-3, 72 h
[4] = test system: HCT-116; test: Antiproliferative activity against human HCT116 cells up to 72 hrs by MTT assay; assay type: functional, cell-based; conditions: HCT-116, 72 h
[5] = Stability of the compound in culture media measured after 72 hrs in presence of curcumin by HPLC method
[6] = test system: T47D; test: Antiproliferative activity against ER/PR positive human T47D cells after 24 hrs by MTT assay; assay type: functional, cell-based
[7] = test system: MCF7; test: Antiproliferative activity against ER/PR positive human MCF7 cells after 24 hrs by MTT assay; assay type: functional, cell-based; conditions: MCF7, 24 h
[8] = test system: MDA-MB-453; test: Antiproliferative activity against HER2 positive human MDA-MB-453 cells after 24 hrs by MTT assay; assay type: functional, cell-based; conditions: MDA-MB-453, 24 h
[9] = test system: MDA-MB-157; test: Antiproliferative activity against human MDA-MB-157 cells after 24 hrs by MTT assay; assay type: functional, cell-based; conditions: MDA-MB-157, 24 h
[10] = test system: BT-474; test: Antiproliferative activity against HER2 positive human BT474 cells after 24 hrs by MTT assay; assay type: functional, cell-based; conditions: BT-474, 24 h
[11] = test system: SK-BR-3; test: Antiproliferative activity against HER2 positive human SKBR3 cells after 24 hrs by MTT assay; assay type: functional, cell-based; conditions: SK-BR-3, 24 h
[12] = test system: MDA-MB-468; test: Antiproliferative activity against human MDA-MB-468 cells after 24 hrs by MTT assay; assay type: functional, cell-based; conditions: MDA-MB-468, 24 h
[13] = test system: Hs-578T; test: Antiproliferative activity against human Hs578T cells after 24 hrs by MTT assay; assay type: functional, cell-based
[14] = test system: MDA-MB-468; test: Antiproliferative activity against doxorubicin-resistant human MDA-MB-468 cells after 24 hrs by MTT assay; assay type: functional, cell-based; conditions: MDA-MB-468, 24 h
[15] = test system: T47D; test: Potency index, ratio of curcumin IC50 to compound IC50 for ER/PR positive human T47D cells; assay type: functional
[16] = test system: MCF7; test: Potency index, ratio of curcumin IC50 to compound IC50 for ER/PR positive human MCF7 cells; assay type: functional
[17] = test system: MDA-MB-453; test: Potency index, ratio of curcumin IC50 to compound IC50 for HER2 positive human MDA-MB-453 cells; assay type: functional
[18] = test system: BT-474; test: Potency index, ratio of curcumin IC50 to compound IC50 for HER2 positive human BT474 cells; assay type: functional
[19] = test system: SK-BR-3; test: Potency index, ratio of curcumin IC50 to compound IC50 for HER2 positive human SKBR3 cells; assay type: functional
[20] = test system: MDA-MB-468; test: Potency index, ratio of curcumin IC50 to compound IC50 for human MDA-MB-468 cells; assay type: functional
[21] = test system: MDA-MB-157; test: Potency index, ratio of curcumin IC50 to compound IC50 for human MDA-MB-157 cells; assay type: functional
[22] = test system: Hs-578T; test: Potency index, ratio of curcumin IC50 to compound IC50 for human Hs578T cells; assay type: functional
[23] = test system: MDA-MB-468; test: Potency index, ratio of curcumin IC50 to compound IC50 for doxorubicin-resistant human MDA-MB-468 cells; assay type: functional
[24] = test system: MDA-MB-231; test: Antiproliferative activity against human MDA-MB-231 cells at 1 to 3 uM in presence of doxorubicin by MTT assay; assay type: functional, cell-based
[25] = test system: Mus musculus; test: Toxicity in nu/nu mouse assessed as changes in body weight at 5 to 50 mg/kg, po administered once daily for 32 days measured every 4 days during compound dosing; assay type: organism-based; conditions: in vivo
[26] = test system: MDA-MB-231; test: Anti-tumor activity against human MDA-MB-231 cells xenografted in nu/nu mouse assessed as reduction in tumor size at 50 mg/kg, po administered once daily for 32 days measured every 4 days during compound dosing relative to control; assay type: functional; set-up: scale not given: the % may be the effect or the level left
[27] = test system: Mus musculus; test: Toxicity in nu/nu mouse assessed as effect on food consumption at 5 to 50 mg/kg, po administered once daily for 32 days measured during compound dosing; assay type: organism-based; conditions: in vivo, 768 h
[28] = test system: Mus musculus; test: Toxicity in nu/nu mouse assessed as behavioral changes at 5 to 50 mg/kg, po administered once daily for 32 days measured during compound dosing; assay type: organism-based; conditions: in vivo, 768 h
[29] = test system: Mus musculus; test: Toxicity in nu/nu mouse assessed as change in total protein level at 5 to 50 mg/kg, po administered once daily for 32 days measured post last dose; assay type: organism-based; conditions: in vivo, 768 h
[30] = test system: Mus musculus; test: Toxicity in nu/nu mouse assessed as change in serum albumin level at 5 to 50 mg/kg, po administered once daily for 32 days measured post last dose; assay type: organism-based; conditions: in vivo, 768 h
[31] = test system: Mus musculus; test: Toxicity in nu/nu mouse assessed as change in serum creatinine level at 5 to 50 mg/kg, po administered once daily for 32 days measured post last dose; assay type: organism-based; conditions: in vivo, 768 h
[32] = test system: Mus musculus; test: Toxicity in nu/nu mouse assessed as change in blood urea nitrogen level at 5 to 50 mg/kg, po administered once daily for 32 days measured post last dose; assay type: organism-based; conditions: in vivo, 768 h
[33] = test system: Mus musculus; test: Toxicity in nu/nu mouse assessed as change in blood glucose level at 5 to 50 mg/kg, po administered once daily for 32 days measured post last dose; assay type: organism-based; conditions: in vivo, 768 h
[34] = test system: Mus musculus; test: Toxicity in nu/nu mouse assessed as change in blood uric acid level at 5 to 50 mg/kg, po administered once daily for 32 days measured post last dose; assay type: organism-based; conditions: in vivo, 768 h
[35] = test system: MDA-MB-231; test: Anti-tumor activity against human MDA-MB-231 cells xenografted in nu/nu mouse assessed as reduction in tumor weight at 50 mg/kg, po administered once daily for 32 days; assay type: functional; set-up: scale not given: the % may be the effect or the level left
[36] = test system: MDA-MB-231; test: Anti-tumor activity against human MDA-MB-231 cells xenografted in nu/nu mouse assessed as reduction in tumor weight at 50 mg/kg, po administered once daily for 32 days in presence of doxorubicin; assay type: functional; set-up: scale not given: the % may be the effect or the level left
[37] = test system: Mus musculus; test: Toxicity in nu/nu mouse assessed as behavioral changes at 50 mg/kg, po administered once daily for 32 days in presence of doxorubicin; assay type: organism-based; conditions: in vivo, 768 h
[38] = test system: Mus musculus; test: Toxicity in nu/nu mouse assessed as change in body weight at 50 mg/kg, po administered once daily for 32 days in presence of doxorubicin; assay type: organism-based; conditions: in vivo, 768 h
[39] = test system: Mus musculus; test: Toxicity in nu/nu mouse assessed as hematological changes at 50 mg/kg, po administered once daily for 32 days in presence of doxorubicin; assay type: organism-based; conditions: in vivo, 768 h
[40] = test system: MDA-MB-231; test: Cell cycle arrest in human MDA-MB-231 cells assessed as increase in G2/M population by propidium iodide staining based flow cytometry; assay type: functional
[41] = Solubility of the compound in water after 24 hrs by shake-flask method; assay type: physicochemical
[42] = test system: MDA-MB-231; test: Induction of autophagy in human MDA-MB-231 cells; assay type: functional, cell-based
[43] = test system: MDA-MB-231; test: Induction of apoptosis in human MDA-MB-231 cells; assay type: functional, cell-based
[44] = test system: MDA-MB-231; test: Effect on heme oxygenase-1 expression in human MDA-MB-231 cells by microarray analysis; assay type: functional, cell-based
[45] = test system: Mus musculus; test: Acute-toxicity in nu/nu mouse assessed as changes in body weight at 500 mg/kg, po administered once daily for 5 days measured for 21 days; assay type: organism-based; conditions: in vivo, 504 h
[46] = test system: Mus musculus; test: Acute-toxicity in nu/nu mouse assessed as behavioral changes at 500 mg/kg, po administered once daily for 5 days measured for 21 days; assay type: organism-based; conditions: in vivo, 504 h
[47] = Solubility of the compound in ethanol after 24 hrs by shake-flask method; assay type: physicochemical; conditions: ethanol
[48] = test system: MDA-MB-231; test: Potency index, ratio of test compound to curcumin for anti-tumor activity against human MDA-MB-231 cells xenografted in nu/nu mouse; assay type: functional

CC(CO)(CO)C(=O)Oc1ccc(/C=C/C(=O)/C=C(O)/C=C/c2ccc(O)cc2)cc1
IC50 [1]: 1330 nM | Ratio IC50 [2]: 12 | IC50 [3]: 5.22 µM

COc1ccc(/C=C/C(=O)C(C)(C)C(=O)/C=C/c2ccc(OC)c(OC(=O)C(C)(CO)CO)c2)cc1OC(=O)C(C)(CO)CO
IC50 [1]: 2700 nM | Ratio IC50 [2]: 2.4 - 12.2

CC(CO)(CO)C(=O)Oc1ccc(/C=C/C(=O)/C=C(O)/C=C/c2ccc(OC(=O)C(C)(CO)CO)cc2)cc1
IC50 [1]: 6740 nM | Ratio IC50 [2]: 2.4 - 12.2 | IC50 [4]: 4.1 µM | IC50 [3]: 5.59 µM

COc1cc(/C=C/C(=O)/C=C(O)/C=C/c2ccc(OC(=O)C(C)(CO)CO)c(OC)c2)ccc1OC(=O)C(C)(CO)CO
IC50 [1]: 2670 nM | Ratio IC50 [2]: 6.1 | Stability [5]: Stable | IC50 [4]: 3.91 µM | IC50 [3]: 3.9 µM | IC50 [6]: 19.3 µM | IC50 [7]: 6.13 µM | IC50 [8]: 3.97 µM | IC50 [9]: 9.23 µM | IC50 [10]: 6.15 µM | IC50 [11]: 6.39 µM | IC50 [12]: 6.13 µM | IC50 [13]: 7.96 µM | IC50 [14]: 6.52 µM | Ratio IC50 [15]: 2.5 - 8.6 | Ratio IC50 [16]: 2.5 - 8.6 | Ratio IC50 [17]: 2.5 - 8.6 | Ratio IC50 [18]: 2.5 - 8.6 | Ratio IC50 [19]: 2.5 - 8.6 | Ratio IC50 [20]: 3.4 - 7.4 | Ratio IC50 [21]: 3.4 - 7.4 | Ratio IC50 [22]: 3.4 - 7.4 | Ratio IC50 [23]: 10 | Activity [24]: Active | Activity [25]: Non-Toxic | Activity [26]: 60% | Activity [27]: Non-Toxic | Activity [28]: Non-Toxic | Activity [29]: Non-Toxic | Activity [30]: Non-Toxic | Activity [31]: Non-Toxic | Activity [32]: Non-Toxic | Activity [33]: Non-Toxic | Activity [34]: Non-Toxic | Activity [35]: 60% | Activity [36]: 80% | Activity [37]: Non-Toxic | Activity [38]: Non-Toxic | Activity [39]: Non-Toxic | Activity [40]: Active | solubility thermodynamic at 24 h [41]: 21.1 µg/mL (≈ 0.0351 mM) | Activity [42]: Active | Activity [43]: Active | Activity [44]: Active | Activity [45]: Non-Toxic | Activity [46]: Non-Toxic | solubility thermodynamic at 24 h [47]: 13.8 mg/mL (≈ 23.1 mM) | Ratio [48]: 10
